{
  "source": "paper PMC8187357",
  "about": "(Communications Biology, 2021)",
  "key": {"[1]": {"test": "Plasma stability, mice", "conditions": "mouse", "quoted_text": "Test compounds were tested for plasma stability (test concentration of 10 μM) as per the protocols reported in publication[20]."}, "[2]": {"target": "T1, PD-L2 (Homo sapiens, UniProt Q9BQ51)", "T1 construct": "purchased R&D systems 1224-PL-100", "T1 sequence (Q9BQ51 with tags, fused parts or gaps limits assumed)": "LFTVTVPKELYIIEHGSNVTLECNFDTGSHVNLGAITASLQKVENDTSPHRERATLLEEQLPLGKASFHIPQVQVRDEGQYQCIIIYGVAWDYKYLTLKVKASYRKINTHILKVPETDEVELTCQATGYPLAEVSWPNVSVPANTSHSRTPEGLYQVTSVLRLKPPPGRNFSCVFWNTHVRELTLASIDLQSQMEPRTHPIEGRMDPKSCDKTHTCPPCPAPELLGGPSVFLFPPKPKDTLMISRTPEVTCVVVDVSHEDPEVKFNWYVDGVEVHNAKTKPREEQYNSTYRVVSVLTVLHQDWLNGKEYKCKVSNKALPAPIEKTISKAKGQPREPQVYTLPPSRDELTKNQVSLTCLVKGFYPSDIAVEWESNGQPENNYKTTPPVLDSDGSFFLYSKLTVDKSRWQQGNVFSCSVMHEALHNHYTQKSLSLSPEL", "test": "Rescue of proliferation inhibited by PD-L2, human PBMC", "type": "cell-based", "conditions": "mean ± S.D.; n=3", "description": "(§1) The ability of peptides, peptidomimetics, and small molecules were analyzed for their ability to rescue T-cell proliferation or IFN-γ release from the inhibitory activity of PD-L1 or PD-L2 in a splenocyte/PBMC-based functional assay as per the protocols reported in publication. […] For all in vitro assays, test agent stock was prepared in water and diluted further in the assay media to achieve test concentrations. Each experimental condition was carried out in triplicates. Percent rescue for a given test compound concentration was calculated by normalizing individual percent test agent proliferation or IFN-γ release values to percent anti-CD3 and anti-CD28 antibodies stimulated proliferation or IFN-γ release. EC50 values were derived by plotting transformed data into non-linear fit in sigmoidal dose–response curve using GraphPad Prism software (Version 7)."}, "[3]": {"target": "T2, PD-L1 (Mus musculus, UniProt Q9EP73)", "T2 construct": "purchased R&D Systems 1019-B7-100", "T2 sequence (Q9EP73 with tags, fused parts or gaps limits assumed)": "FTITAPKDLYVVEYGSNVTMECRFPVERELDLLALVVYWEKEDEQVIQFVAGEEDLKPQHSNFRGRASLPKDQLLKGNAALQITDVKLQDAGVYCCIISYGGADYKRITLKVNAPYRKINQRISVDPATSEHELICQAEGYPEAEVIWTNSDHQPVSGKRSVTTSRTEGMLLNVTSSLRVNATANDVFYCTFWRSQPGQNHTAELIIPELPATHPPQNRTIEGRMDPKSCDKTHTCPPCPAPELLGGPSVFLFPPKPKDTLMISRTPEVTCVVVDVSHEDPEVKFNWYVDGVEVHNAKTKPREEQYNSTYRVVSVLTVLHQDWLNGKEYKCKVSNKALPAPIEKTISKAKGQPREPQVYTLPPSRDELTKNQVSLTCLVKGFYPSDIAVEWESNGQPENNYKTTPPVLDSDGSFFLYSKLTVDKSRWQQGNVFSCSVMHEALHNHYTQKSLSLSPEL", "test": "Rescue of PD-L1 mediated inhibition of proliferation, mouse splenocytes", "type": "cell-based", "conditions": "splenocyte-based assay", "description": "as §1"}, "[4]": {"tested_on": "CT26 colon carcinoma", "test": "CT26 model, combination with docetaxel", "type": "in vivo, mouse", "conditions": "for Individual tumor volumes: CA-170 alone, individual animals; for TGI: CT26 in Balb/c mice, 12 days", "description": "Studies in syngeneic models including B16 melanoma metastasis model and CT26 colon carcinoma subcutaneous model were performed as described. For the Docetaxel combination experiment in CT26 model, indicated dosage of docetaxel (Source: Docetere® injection by Dr Reddy’s Laboratories) was dosed intraperitoneally to animals. For the CA-170 combination groups, CA-170 (10 mg/kg/day, oral) was dosed ~10 min after docetaxel. Animal grouping, treatment efficacy assessment and %TGI calculations were performed as mentioned above. For the CT26 experiment with cyclophosphamide, 100 mg/kg of cyclophosphamide was dosed once on day 5 intraperitoneally after cell implantation (first day of dosing for all other groups). Anti-PD1 antibody (Clone J43 from BioXcel) was dosed intraperitoneally at 100 µg/animal once every week."}, "[5]": {"target": "T3, PD-L2 (Mus musculus, UniProt Q9WUL5)", "T3 construct": "purchased R&D Systems 1022-PL-100", "T3 sequence (Q9WUL5 with tags, fused parts or gaps limits assumed)": "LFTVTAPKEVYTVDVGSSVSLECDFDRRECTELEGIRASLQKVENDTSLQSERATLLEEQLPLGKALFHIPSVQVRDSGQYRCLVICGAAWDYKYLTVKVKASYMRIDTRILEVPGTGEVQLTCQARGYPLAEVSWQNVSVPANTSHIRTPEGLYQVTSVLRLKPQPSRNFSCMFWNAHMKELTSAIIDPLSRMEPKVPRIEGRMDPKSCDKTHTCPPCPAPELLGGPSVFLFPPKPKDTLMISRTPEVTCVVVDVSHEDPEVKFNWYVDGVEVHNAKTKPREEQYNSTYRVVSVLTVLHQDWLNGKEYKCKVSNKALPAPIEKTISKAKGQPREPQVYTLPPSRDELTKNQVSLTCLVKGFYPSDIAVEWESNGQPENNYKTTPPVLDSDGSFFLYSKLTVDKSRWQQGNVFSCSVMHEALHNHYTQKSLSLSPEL", "test": "Rescue of PD-L2 mediated inhibition of proliferation, mouse splenocytes", "type": "cell-based", "conditions": "mean ± S.D.; n=2; read-out: Mouse Splenocyte Proliferation Rescue EC50 PD-L2", "description": "For all in vitro assays, test agent stock was prepared in water and diluted further in the assay media to achieve test concentrations. Each experimental condition was carried out in triplicates. Percent rescue for a given test compound concentration was calculated by normalizing individual percent test agent proliferation or IFN-γ release values to percent anti-CD3 and anti-CD28 antibodies stimulated proliferation or IFN-γ release."}, "[6]": {"tested_on": "human PBMCs", "test": "Cytokine induction in human PBMCs", "type": "cell-based", "conditions": "for IFNγ: 48 h, normal density, replicates", "description": "To determine the potential for any unforeseen T-cell agonist activity in humans, a study was conducted where human PBMCs from healthy donors were pre-cultured either at normal density (2 × 10^5 cells/well) or at high density (1 × 10^7 cells/mL) in vitro to increase cell–cell contacts and immune scanning as described[24] and then treated with CA-170 (10 nM to 1000 nM) IL-2, TNF-α and IFN-γ cytokine release was measured in the culture supernatants at 24 and 48 h. Human PBMCs stimulated with anti-CD3 alone or anti-CD3 + anti-CD28 antibodies served as positive controls for cytokine release in this assay."}, "[7]": {"target": "T4, PD-1:PD-L1 complex (Homo sapiens, UniProt Q9NZQ7)", "T4 construct": "purchased Sino Biologicals (PD-L1); R&D system (PD-1 Fc) 10084-H08H; 1086-PD; host or cells: mammalian cells", "T4 sequence (Q9NZQ7 19-239 limits assumed, one chain of several)": "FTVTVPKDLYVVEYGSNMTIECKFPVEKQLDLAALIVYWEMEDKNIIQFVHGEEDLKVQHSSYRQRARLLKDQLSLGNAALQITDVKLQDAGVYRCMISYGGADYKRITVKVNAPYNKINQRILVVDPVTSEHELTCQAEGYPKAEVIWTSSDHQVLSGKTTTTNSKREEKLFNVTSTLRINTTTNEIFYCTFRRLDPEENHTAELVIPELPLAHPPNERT", "test": "TR-FRET PD-1:PD-L1 complex formation assay", "type": "binding", "conditions": "for Percent inhibition: duplicates", "description": "The assay was performed using LANCE Ultra TR-FRET binding assay. To determine the half maximal inhibitory concentration (IC50) of tested compounds, they were solubilized in water and measurements were performed on individual dilution series. His-tagged human recombinant PD-L1 protein (Sino Biologicals, Cat#10084-H08H) at 20 nM final concentration was incubated at 25 °C temperature with indicated concentration of test compound for 15 min in a white Lumitec high-binding, 384-well plate (Grenier, Cat #781074). […] LANCE Eu-anti-human IgG from Perkin Elmer, (Cat# AD0212) at 0.5 nM final concentration and Surelight Allophycocyanin-6-His from Perkin Elmer (Cat# AD0059H) at 20 nM final concentration was added to the wells. […] Collected data was background subtracted on the negative control, normalized, and analyzed using non-linear regression analysis to determine the IC50 value by GraphPad Prism Version 8."}, "[8]": {"tested_on": "Cl-Channel", "test": "CEREP 80 panel binding: Cl-Channel", "conditions": "10 µM", "description": "(§2) CEREP 80 panel assay was carried out by Eurofins Cerep Panlabs facility at France. A series of binding assays was carried out to understand the off-target toxicity of CA-170. CA-170 was tested at 10 μM test concentration in duplicates. Compound binding was calculated as a % inhibition of the binding of a radioactively labeled ligand specific for each target. In each experiment the respective reference compound was tested concurrently with CA-170, and the data were compared with historical values determined at Eurofins. The experiment was accepted in accordance with Eurofins validation standard operating procedure. The results are expressed as a percent of control specific binding; (measured specific binding / control specific binding) × 100 and as a percent inhibition of control specific binding; 100−(measured specific binding / control specific binding) × 100 obtained in the presence of CA-170. The IC50 values (concentration causing a half-maximal inhibition of control specific binding) and Hill coefficients (nH) were determined by non-linear regression analysis of the competition curves generated with mean replicate values using Hill equation curve fitting."}, "[9]": {"target": "T5, Neurotensin NTS1 (Homo sapiens, UniProt P30989)", "T5 construct": "Eurofins Cerep Panlabs (contract assay)", "T5 sequence (P30989 whole entry)": "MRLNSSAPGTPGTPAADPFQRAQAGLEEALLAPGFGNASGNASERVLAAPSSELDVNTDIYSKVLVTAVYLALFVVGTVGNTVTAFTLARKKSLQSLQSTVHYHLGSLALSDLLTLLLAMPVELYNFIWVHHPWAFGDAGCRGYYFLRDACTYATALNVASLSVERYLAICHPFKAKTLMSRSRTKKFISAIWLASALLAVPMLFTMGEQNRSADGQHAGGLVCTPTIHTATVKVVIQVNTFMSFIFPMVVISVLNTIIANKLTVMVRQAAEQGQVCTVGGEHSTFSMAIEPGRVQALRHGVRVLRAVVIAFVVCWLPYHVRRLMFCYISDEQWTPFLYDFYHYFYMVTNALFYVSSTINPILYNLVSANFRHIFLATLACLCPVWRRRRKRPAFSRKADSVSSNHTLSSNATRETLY", "test": "CEREP 80 panel binding: Neurotensin", "conditions": "read-out: % Inhibition of Control Specific Binding", "description": "as §2"}, "[10]": {"tested_on": "GR, PPARγ", "test": "CEREP 80 panel binding: Nuclear receptors", "conditions": "10 µM", "description": "as §2"}},
  "note": "Values joined by “and” are separate entries in the source; they are usually repeats but may differ in a detail not shown here. Equal values may be shown once.",
  "data": [
    {"compound": "C[C@@H](O)[C@H](NC(=O)N[C@@H](CC(N)=O)c1nc([C@@H](N)CO)no1)C(=O)O", "note": "[CA-170]", "values": [
      {"measurement": "remaining at 4 h, 10 μM", "setting": "[1]", "result": "> 95", "unit": "%"},
      {"measurement": "EC50", "setting": "[2]", "result": 51.5, "unit": "nM"},
      {"measurement": "EC50", "setting": "[3]", "result": "15.4 ± 1.3", "unit": "nM"},
      {"measurement": "Individual tumor volumes", "setting": "[4]; day 1 of treatment", "result": "20.16 mm3 and 32.48 mm3 and 34.58 mm3 and 45.49 mm3 and 48.25 mm3 and 58.95 mm3 and 62 mm3 and 77.12 mm3 and 87.62 mm3"},
      {"measurement": "Individual tumor volumes", "setting": "[4]; day 4 of treatment", "result": "46.73 mm3 and 66.38 mm3 and 43.09 mm3 and 70.24 mm3 and 54.41 mm3 and 118.43 mm3 and 93.26 mm3 and 105.24 mm3 and 188.91 mm3"},
      {"measurement": "Individual tumor volumes", "setting": "[4]; day 6 of treatment", "result": "73.66 mm3 and 96.49 mm3 and 125.38 mm3 and 93.3 mm3 and 88 mm3 and 204.79 mm3 and 132.26 mm3 and 118.36 mm3 and 317.89 mm3"},
      {"measurement": "Individual tumor volumes", "setting": "[4]; day 8 of treatment", "result": "84.62 mm3 and 174.68 mm3 and 185.55 mm3 and 147.74 mm3 and 147.76 mm3 and 334.98 mm3 and 214.88 mm3 and 178.28 mm3 and 601.81 mm3"},
      {"measurement": "Individual tumor volumes", "setting": "[4]; day 11 of treatment", "result": "209.65 mm3 and 360.36 mm3 and 315.63 mm3 and 279.2 mm3 and 265.42 mm3 and 706.83 mm3 and 356.89 mm3 and 376.42 mm3 and 728.46 mm3"},
      {"measurement": "TGI", "setting": "[4]; CA-170 10 mg/kg/day single agent", "result": 43, "unit": "%"},
      {"measurement": "TGI", "setting": "[4]; combination CA-170 10 mg/kg and docetaxel 10 mg/kg", "result": 68, "unit": "%"},
      {"measurement": "EC50", "setting": "[5]", "result": 40.2, "unit": "nM"},
      {"measurement": "IFN-γ", "setting": "[6]; 24 hours, Normal density, 10nM", "result": "BLoD"},
      {"measurement": "IFN-γ", "setting": "[6]; 24 hours, Normal density, 50nM", "result": "BLoD"},
      {"measurement": "IFN-γ", "setting": "[6]; 24 hours, Normal density, 100nM", "result": "BLoD"},
      {"measurement": "IFN-γ", "setting": "[6]; 24 hours, Normal density, 250nM", "result": "BLoD"},
      {"measurement": "IFN-γ", "setting": "[6]; 24 hours, Normal density, 500nM", "result": "BLoD"},
      {"measurement": "IFN-γ", "setting": "[6]; 24 hours, Normal density, 1000nM", "result": "BLoD"},
      {"measurement": "IFNγ", "setting": "[6]; 10 nM", "result": "BLOD"},
      {"measurement": "IFNγ", "setting": "[6]; 50 nM", "result": "BLOD"},
      {"measurement": "IFNγ", "setting": "[6]; 100 nM", "result": "BLOD"},
      {"measurement": "IFNγ", "setting": "[6]; 250 nM", "result": "BLOD"},
      {"measurement": "IFNγ", "setting": "[6]; 500 nM", "result": "BLOD"},
      {"measurement": "IFNγ", "setting": "[6]; 1000 nM", "result": "BLOD"},
      {"measurement": "IFN-γ", "setting": "[6]; human, 24 h, 10 nM", "result": "2.8 ± 1.9", "unit": "pg/mL"},
      {"measurement": "IFN-γ", "setting": "[6]; human, 24 h, 50 nM", "result": "1.5 ± 1.0", "unit": "pg/mL"},
      {"measurement": "IFN-γ", "setting": "[6]; human, 24 h, 100 nM", "result": "1.5 ± 0", "unit": "pg/mL"},
      {"measurement": "IFN-γ", "setting": "[6]; human, 24 h, 250 nM", "result": "4.0 ± 0.7", "unit": "pg/mL"},
      {"measurement": "IFN-γ", "setting": "[6]; human, 24 h, 500 nM", "result": "6.8 ± 1.5", "unit": "pg/mL"},
      {"measurement": "IFN-γ", "setting": "[6]; human, 24 h, 1000 nM", "result": "5.8 ± 1.4", "unit": "pg/mL"},
      {"measurement": "cytokine induction (in words)", "setting": "[6]; normal and high-density culture conditions", "result": "did not induce significant levels of cytokines"},
      {"measurement": "Percent inhibition", "setting": "[7]; 1e-7 M", "result": "6.182% and -0.9776%"},
      {"measurement": "Percent inhibition", "setting": "[7]; 1e-6 M", "result": "-12.4686% and -2.961%"},
      {"measurement": "Percent inhibition", "setting": "[7]; 1e-5 M", "result": "-7.3407% and -7.039%"},
      {"measurement": "Percent inhibition", "setting": "[7]; 0.0001 M", "result": "-7.475% and -8.751%"},
      {"measurement": "prevention of PD-1:PD-L1 complex formation (in words)", "setting": "[7]; tested up to 100 μM", "result": "did not lead to prevention of complex formation"},
      {"measurement": "% Inhibition of Control Specific Binding", "setting": "[8]", "result": 2, "unit": "%"},
      {"measurement": "inhibition at 10 µM", "setting": "[9]", "result": 7, "unit": "%"},
      {"measurement": "% Inhibition of Control Specific Binding", "setting": "[10]", "result": "≤ 7", "unit": "%"}
    ]}
  ]
}
